Test results as given in patent US20090232912A1, “Method For Preparing Extract For The Prevention and Treatment Of Hyperlipidemia and Obesity From the Extract of Aster Spathulifolius Aerial Part and Composition Containing The Same” (priority 2005, published 2009).
Marks after values point to notes of the source that are not given here.

How the values were obtained:
Type in all cases: in vivo, rat (Sprague-Dawley male)
rats fed high fat diet [1] = test: Experiment 4: hepatic lipids (TG, TC, FFA); settings: Exp.4 HFD rats; AE-B 125, AE-C 100, AE-1 10, ABP 1.5 mg/kg once a day 6 weeks
Text: (§1) The rats, aged 6 week-old and weighing 170˜180 g Sprague-Dawley male, were purchased from Samtaco (Seoul, Korea). After the animals were given a standard laboratory diet for 1 week, they were divided two groups each group. Rats were fed two diets: the normal diet (ND, n=10) group and high fat diet (HFD, n=50) group. 6 weeks later, HFD group were subdivided five groups. They were administrated with extract of Aster spathulifolius aerial part orally once a day for 6 weeks.
(§2) Hepatic lipid was extracted by the method devised by Folch et al. and its content was measured by the same technique used for the serum analysis. […] There was no significant difference in hepatic free fatty acid (FFA) level.

rats fed high fat diet [2] = test: Experiment 4: serum leptin, insulin and glucose; settings: Exp.4 HFD rats; AE-B 125, AE-C 100, AE-1 10, ABP 1.5 mg/kg once a day 6 weeks
Text: as §1
(§3) After 12 weeks, rats were anesthetized with ether and sacrificed after 14 h of fasting. Blood samples were collected from hepatic vein and centrifuged (3,000 rpm for 10 min at 4° C.). Serum was frozen at −70° C. for the biochemical analysis. The epididymal and abdominal fat pad were immediately weighed, measured size of adipocyte using microscope.
(§4) Serum leptin and insulin was measured by RIA using Linco leptin assay kit (Linco research Immunoassay, St. Louis, Mo.) and insulin standards (Linco research Immunoassay, St. Louis, Mo.) respectively (FIG. 5).

rats fed high fat diet [3] = test: Experiment 4: white adipocyte size and adipose tissue weights; settings: Exp.4 HFD rats; after 12 weeks; AE-B 125, AE-C 100, AE-1 10, ABP 1.5 mg/kg once a day 6 weeks
Text: as §1
A is ND Group, B is HFD-C group, C is HFD+AE-B group, D is HFD+AE-C group, E is HFD+AE-1 group and F is HFD+ABP group.
as §3

rats fed high fat diet [4] = test: Experiment 4: body weight, food intake and food efficiency ratio of rats fed high fat diet; settings: Exp.4 HFD rats; orally once a day 6 weeks; AE-B 125, AE-C 100, AE-1 10, ABP 1.5 mg/kg
Text: as §1
HFD group: High fat diet+0.5% carboxymethycelluose
HFD+AE-B group: High fat diet+AE-B 125 mg/kg
HFD+AE-C group: High fat diet+AE-C 100 mg/kg
HFD+AE-1 group: High fat diet+AE-110 mg/kg
HFD+ABP group: High fat diet+ABP 1.5 mg/kg
(§5) The experimental diets contain either a normal fat (11.7% of calories as fat, AIN-76A diet # 100000, Dyets Inc., Bethlehem, Pa., USA) or a high fat (40% of calories as fat, AIN-76A high fat diet # 100496, Dyets Inc., Bethlehem, Pa., USA) (Table 1). During the test period, food intake and body weight were measured twice a week. Food efficiency ratio was calculated by dividing the increase in body weight during the test period by the food intake during the period.

rats fed high fat diet [5] = test: Experiment 5: levels of lipid in liver; settings: Exp.5 HFD rats
Description: as §2
as §1, with “n=8)” for “n=10)”, “n=88)” for “n=50)”, “11 groups (n=8).” for “five groups.”

rats fed high fat diet [6] = test: Experiment 5: adipocyte (fat) weight; settings: Exp.5 HFD rats
Description: as §3
as §1, with “n=8)” for “n=10)”, “n=88)” for “n=50)”, “11 groups (n=8).” for “five groups.”
Adipocyte weight were determined method of experiment 5. EASA treated groups reduced white adipocyte versus the HFD group, in a dose-dependent manner.

rats fed high fat diet [7] = test: Experiment 5: serum levels of leptin and insulin; settings: Exp.5 HFD rats
Description: as §4
as §1, with “n=8)” for “n=10)”, “n=88)” for “n=50)”, “11 groups (n=8).” for “five groups.”
Serum leptin and insulin level was measured in the same manner as in Test Example 4. Leptin is a hormone secreted from the adipocyte, in proportion to body fat mass. Leptin and insulin are deeply related with energy homeostasis. Increased leptin induces hyperinsulinemia, which in turn directly stimulates the leptin mRNA in the adipocyte.

rats fed high fat diet [8] = test: Experiment 5: levels of lipid in serum; settings: Exp.5 HFD rats
Description: Serum triglyceride (TG), total cholesterol (TC), and HDL-cholesterol (HDL-C) levels were determined using the calorimetric method with commercial kits (Asan Diagnostics, Seoul, Korea). There was no significant difference in serum TG or HDL-C levels, although EASA-treated groups tended to be lower than the HFD-C group (FIG. 4).
as §1, with “n=8)” for “n=10)”, “n=88)” for “n=50)”, “11 groups (n=8).” for “five groups.”
In levels of TG, the HFD groups had similar values to the ND group. EASA treated groups reduced the levels of TG versus the HFD group. […] EASA treated groups reduced the levels of TC versus the HFD and ND group.

rats fed high fat diet [9] = test: Experiment 5: food intake, change of body weights and food efficiency ratio; settings: Exp.5 HFD rats
Description: as §5
as §1, with “n=8)” for “n=10)”, “n=88)” for “n=50)”, “11 groups (n=8).” for “five groups.”, “weeks. […]” for “weeks.”
AE-1 20 group: High fat diet+AE-1 (Germacrone) 20 mg/kg
AE-1 10 group: High fat diet+AE-1(Germacrone) 10 mg/kg
AE-1 5 group: High fat diet+AE-1 (Germacrone) 5 mg/kg […]
Experimental diet is same table 1 of experiment 4. Food intake, change of body weights and food efficiency ratio were shown Table 6.

[10] = AE-1 5 mg/kg orally once a day 6 weeks
[11] = AE-1 10 mg/kg orally once a day 6 weeks
[12] = AE-1 20 mg/kg orally once a day 6 weeks

## CC[C@H](/C=C/[C@@H](C)[C@H]1CC[C@H]2C3=CC[C@H]4C[C@@H](O[C@@H]5O[C@H](CO)[C@@H](O)[C@H](O)[C@H]5O)CC[C@]4(C)[C@H]3CC[C@]12C)C(C)C [ABP, α-Spinasterol 3-O-β-D-glucopyranoide]
Rats fed high fat diet [1]
  FFA (hepatic): 1.018 ± 0.25 meq/l
  TC (hepatic): 17.59 ± 2.79^b mg/g liver
  TG (hepatic): 2.65 ± 0.48^b mg/g liver
Rats fed high fat diet [2]
  Insulin (serum): 1.21 ± 0.60^bc ng/ml
  Leptin (serum): 3.98 ± 0.95^b ng/ml
Rats fed high fat diet [3]
  Abdominal fat pad: 14.98 ± 3.19^b g
  Epididymal fat pad: 11.55 ± 1.96^ab g
Rats fed high fat diet [4]
  12 wk B.W: 509.20 ± 39.54^ab g
  FER (food efficiency ratio): 0.139 ± 0.018^b
  Food intake: 26.00 ± 3.64 g/day

## CC(C)CC(N(C)C)C1(c2ccc(Cl)cc2)CCC1 (stereo not drawn) [Sibutramine, reference compound]
Rats fed high fat diet [5]; Sibutramine 7.5 mg/kg, 6 weeks
  FFA (liver): 0.871 ± 0.68 meq/l
  TC (liver): 13.52 ± 2.15^bc mg/g liver
  TG (liver): 1.84 ± 0.21^b mg/g liver
Rats fed high fat diet [6]; Sibutramine 7.5 mg/kg, 6 weeks
  Abdominal fat: 11.44 ± 3.16^b g
  Epididymal fat: 8.75 ± 2.57^bc g
  Total fat: 25.30 ± 5.77^b g
  Visceral fat: 5.11 ± 0.89^b g
Rats fed high fat diet [7]; Sibutramine 7.5 mg/kg, 6 weeks
  Insulin (serum): 1.02 ± 0.33^bc ng/ml
  Leptin (serum): 6.27 ± 1.89^bc ng/ml
Rats fed high fat diet [8]; Sibutramine 7.5 mg/kg, 6 weeks
  HDL-cholesterol (serum): 46.62 ± 12.21 mg/dL
  Total cholesterol (serum): 59.79 ± 19.99^c mg/dl
  Triglyceride (serum): 82.62 ± 26.39^ab mg/dl
Rats fed high fat diet [9]; Sibutramine 7.5 mg/kg, 6 weeks
  12 wk B.W: 462.00 ± 44.93^bc g
  FER (food efficiency ratio): 0.183 ± 0.028^b
  Food intake: 16.70 ± 2.68 g/day

## CC(C)=C1C/C=C(\C)CC/C=C(\C)CC1=O [AE-1, Germacron]
Rats fed high fat diet [5]; [10]
  FFA (liver): 0.868 ± 0.28 meq/l
  TC (liver): 12.81 ± 1.20^bcd mg/g liver
  TG (liver): 1.95 ± 0.46^b mg/g liver
Rats fed high fat diet [5]; [11]
  FFA (liver): 0.831 ± 0.30 meq/l
  TC (liver): 12.84 ± 1.71^bcd mg/g liver
  TG (liver): 1.81 ± 1.32^b mg/g liver
Rats fed high fat diet [5]; [12]
  FFA (liver): 0.775 ± 0.25 meq/l
  TC (liver): 12.14 ± 1.76^cd mg/g liver
  TG (liver): 1.88 ± 0.55^b mg/g liver
Rats fed high fat diet [6]; [10]
  Abdominal fat: 14.50 ± 4.43^ab g
  Epididymal fat: 11.15 ± 2.39^ab g
  Total fat: 31.09 ± 8.02^b g
  Visceral fat: 5.45 ± 2.13^b g
Rats fed high fat diet [6]; [11]
  Abdominal fat: 14.60 ± 2.20^ab g
  Epididymal fat: 9.97 ± 2.85^b g
  Total fat: 29.55 ± 5.25^b g
  Visceral fat: 4.98 ± 1.53^b g
Rats fed high fat diet [6]; [12]
  Abdominal fat: 13.76 ± 3.11^ab g
  Epididymal fat: 11.05 ± 1.44^b g
  Total fat: 29.49 ± 5.26^b g
  Visceral fat: 4.68 ± 1.78^b g
Rats fed high fat diet [7]; [10]
  Insulin (serum): 1.35 ± 0.28^bc ng/ml
  Leptin (serum): 7.63 ± 1.69^b ng/ml
Rats fed high fat diet [7]; [11]
  Insulin (serum): 1.06 ± 0.40^bc ng/ml
  Leptin (serum): 6.55 ± 6.28^bc ng/ml
Rats fed high fat diet [7]; [12]
  Insulin (serum): 0.98 ± 0.21^b ng/ml
  Leptin (serum): 6.70 ± 2.58^b ng/ml
Rats fed high fat diet [1]
  FFA (hepatic): 0.869 ± 0.25 meq/l
  TC (hepatic): 13.74 ± 0.92^c mg/g liver
  TG (hepatic): 2.20 ± 0.52^b mg/g liver
Rats fed high fat diet [2]
  Glucose (serum): 206.60 ± 42.07^ab mg/dl
  Insulin (serum): 1.00 ± 0.27^bc ng/ml
  Leptin (serum): 3.88 ± 1.01^b ng/ml
Rats fed high fat diet [8]; [10]
  HDL-cholesterol (serum): 48.39 ± 9.65 mg/dL
  Total cholesterol (serum): 51.93 ± 10.29^c mg/dl
  Triglyceride (serum): 91.51 ± 20.50^ab mg/dl
Rats fed high fat diet [8]; [11]
  HDL-cholesterol (serum): 42.41 ± 8.41 mg/dL
  Total cholesterol (serum): 62.56 ± 8.33^c mg/dl
  Triglyceride (serum): 86.94 ± 21.93^ab mg/dl
Rats fed high fat diet [8]; [12]
  HDL-cholesterol (serum): 55.80 ± 19.57 mg/dL
  Total cholesterol (serum): 51.91 ± 14.32^c mg/dl
  Triglyceride (serum): 91.12 ± 24.03^ab mg/dl
Rats fed high fat diet [3]
  Abdominal fat pad: 14.18 ± 4.67^b g
  Epididymal fat pad: 10.21 ± 2.69^b g
Rats fed high fat diet [4]
  12 wk B.W: 504.40 ± 28.37^b g
  FER (food efficiency ratio): 0.137 ± 0.013^b
  Food intake: 25.82 ± 2.91 g/day
Rats fed high fat diet [9]; [10]
  12 wk B.W: 501.71 ± 46.64^b g
  FER (food efficiency ratio): 0.196 ± 0.029^b
  Food intake: 17.89 ± 2.97 g/day
Rats fed high fat diet [9]; [11]
  12 wk B.W: 494.75 ± 45.52^b g
  FER (food efficiency ratio): 0.189 ± 0.026^b
  Food intake: 18.24 ± 2.93 g/day
Rats fed high fat diet [9]; [12]
  12 wk B.W: 490.75 ± 18.27^b g
  FER (food efficiency ratio): 0.194 ± 0.010^b
  Food intake: 17.48 ± 2.83 g/day
